# Experimental data from publication PMC7413254 (Nature Communications, 2020).
# Where two headings read alike, the source gives them in different places.
# Tests used:
# [1] = system: PfCRT; assay: Test of solutes as potential co-substrates for influx of VF-6 via PfCRT into the oocyte; type: cell-based, Plasmodium falciparum; parameters: key: X: Compounds that have been tested as potential co-substrates but are not required for influx of VF-6 via PfCRT into the oocyte; settings: X = tested
# [2] = system: non-expressing oocytes; type: cell-based, Xenopus laevis; settings: total [3H]CQ transport; for Uptake of [3H]CQ (% non-expressing oocyte control), trans-stimulation: non-expressing oocytes, normalised to the oocyte type control; for Uptake of [3H]CQ (% PfCRTDd2 control), trans-stimulation, non-expressing oocytes: mean ± SEM, SEM
# Summary of the method: (§1)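 Oocytes (ten per treatment, ≥4 independent frogs/days) were preloaded by injecting VF-6 in 25 nL ND96 at pH 5.0, 5.5, 6.0 or 7.0, or Na^+-free choline buffer, then uptake run 1.5 h, 27.5 °C, ND96 pH 5.5 by default. Internal concentrations assumed ~400 nL oocyte volume.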
# [3] = system: PfCRT; assay: Influx of VF-6 via PfCRT into the oocyte, solutes tested as potential co-substrates; type: cell-based, Plasmodium falciparum; parameters: key: X: Compounds that have been tested as potential co-substrates but are not required for influx of VF-6 via PfCRT into the oocyte; settings: X marks the solute
# [4] = molecular target: T1, PfCRT^3D7 (Plasmodium falciparum, UniProt Q8IBZ9); assay: cell-based; type: cell-based; settings: total [3H]CQ transport; for inhibition at 500 µM: [test solute] = 0.5 mM; for inhibition at 1000 µM: [test solute] = 1 mM; for inhibition at 2000 µM: [test solute] = 2 mM
# Summary of the method: (§2)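 ND96, pH 5.5, 1.5 h, 27.5 °C; uptake direction acidic outside → oocyte cytosol, mimicking efflux from digestive vacuole. Ice-cold wash stop, 10% SDS lysis, scintillation counting. Ten oocytes/treatment, ≥4 independent experiments.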
# [5] = molecular target: T2, PfCRT^Dd2 (Plasmodium falciparum, UniProt Q9N623, A220S/I356T/K76T/M74I/N326S/N75E/Q271E/R371I); assay: cell-based; type: cell-based; settings: […]; for activity at 45000 µM: [test solute]i = 45 mM (30 mM for some solutes due to solubility)
# Summary of the method: as §1
# [6] = molecular target: T3, PfCRT^Ecu1110 (Plasmodium falciparum, UniProt Q9N623, A220S/I356L/K76T/N326D); assay: cell-based; type: cell-based; settings: […]
# Summary of the method: as §1
# [7] = molecular target: T4, PfNT1 (Plasmodium falciparum, UniProt Q8IDM6); assay: cell-based; type: cell-based; settings: for activity at 5000 µM: total [3H]CQ transport
# T4 construct: expressed in transfected cells; host or cells: Xenopus laevis oocytes (stage V-VI), cRNA-injected
# Summary of the method: as §1
# [8] = molecular target: T1, PfCRT^3D7; assay: cell-based; type: cell-based
# Summary of the method: as §1
# [9] = molecular target: T2, PfCRT^Dd2; assay: [3H]CQ uptake into Xenopus oocytes, cis-inhibition by unlabelled solute; type: cell-based
# Summary of the method: as §2
# [10] = molecular target: T3, PfCRT^Ecu1110; assay: as above; type: cell-based
# Summary of the method: as §2
# [11] = system: non-expressing oocytes; assay: cells; type: cell-based, Xenopus laevis; settings: Xenopus laevis, total [3H]CQ transport; for inhibition at 500 µM: [test solute] = 0.5 mM; for inhibition at 1000 µM: [test solute] = 1 mM; for inhibition at 2000 µM: [test solute] = 2 mM
# Summary of the method: as §2
# [12] = PfCRT3D7 oocytes, normalised to the oocyte type control, read-out: Uptake of [3H]CQ (% PfCRT3D7 control), cis-inhibition
# [13] = mean ± SEM, SEM, read-out: Uptake of [3H]CQ (% PfCRTDd2 control), cis-inhibition, PfCRT3D7
# [14] = read-out: PfCRT-mediated [3H]CQ transport, cis-inhibition (% PfCRTDd2 control)
# [15] = read-out: Uptake of [3H]CQ (% PfCRTDd2 control), cis-inhibition, PfCRTDd2, SEM
# [16] = read-out: PfCRT-mediated [3H]CQ transport, cis-inhibition (% PfCRTEcu1110 control)
# [17] = read-out: Uptake of [3H]CQ (% PfCRTDd2 control), cis-inhibition, PfCRTEcu1110, SEM
# [18] = read-out: Uptake of [3H]CQ (% PfCRTEcu1110 control), cis-inhibition
# [19] = read-out: [3H]CQ transport (% PfCRTEcu1110 control), cis-inhibition, PfCRTEcu1110, SEM
# [20] = Oocyte, mean ± SEM, SEM, read-out: Uptake of [3H]CQ (% PfCRTDd2 control), cis-inhibition, non-expressing oocytes
# [21] = non-expressing oocytes, normalised to the oocyte type control, read-out: Uptake of [3H]CQ (% non-expressing oocyte control), cis-inhibition
# T2 sequence (Q9N623 whole entry A220S/I356T/K76T/M74I/N326S/N75E/Q271E/R371I): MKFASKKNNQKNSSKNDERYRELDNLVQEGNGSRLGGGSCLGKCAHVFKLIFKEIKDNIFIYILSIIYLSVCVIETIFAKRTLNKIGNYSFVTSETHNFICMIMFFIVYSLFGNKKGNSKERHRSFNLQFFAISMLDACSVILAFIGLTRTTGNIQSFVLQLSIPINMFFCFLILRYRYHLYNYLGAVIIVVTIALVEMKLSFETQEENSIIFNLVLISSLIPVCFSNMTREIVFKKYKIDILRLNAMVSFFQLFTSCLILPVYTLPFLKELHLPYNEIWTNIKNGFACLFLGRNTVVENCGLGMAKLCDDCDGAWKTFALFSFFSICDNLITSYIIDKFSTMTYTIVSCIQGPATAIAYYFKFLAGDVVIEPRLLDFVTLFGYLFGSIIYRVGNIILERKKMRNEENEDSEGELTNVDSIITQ
# T4 sequence (Q8IDM6 whole entry): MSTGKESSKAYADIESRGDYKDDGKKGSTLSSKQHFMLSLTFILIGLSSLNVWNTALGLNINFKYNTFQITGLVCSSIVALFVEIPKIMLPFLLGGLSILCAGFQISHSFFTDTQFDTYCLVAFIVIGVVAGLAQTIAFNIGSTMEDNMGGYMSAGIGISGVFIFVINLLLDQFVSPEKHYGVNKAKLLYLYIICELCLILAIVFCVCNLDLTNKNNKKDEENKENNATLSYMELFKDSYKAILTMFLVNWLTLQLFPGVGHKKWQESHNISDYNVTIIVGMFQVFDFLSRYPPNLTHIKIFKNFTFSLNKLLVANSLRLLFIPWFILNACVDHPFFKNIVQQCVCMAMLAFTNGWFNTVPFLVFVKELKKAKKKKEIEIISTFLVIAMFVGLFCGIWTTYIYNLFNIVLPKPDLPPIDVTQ
# T3 sequence (Q9N623 whole entry A220S/I356L/K76T/N326D): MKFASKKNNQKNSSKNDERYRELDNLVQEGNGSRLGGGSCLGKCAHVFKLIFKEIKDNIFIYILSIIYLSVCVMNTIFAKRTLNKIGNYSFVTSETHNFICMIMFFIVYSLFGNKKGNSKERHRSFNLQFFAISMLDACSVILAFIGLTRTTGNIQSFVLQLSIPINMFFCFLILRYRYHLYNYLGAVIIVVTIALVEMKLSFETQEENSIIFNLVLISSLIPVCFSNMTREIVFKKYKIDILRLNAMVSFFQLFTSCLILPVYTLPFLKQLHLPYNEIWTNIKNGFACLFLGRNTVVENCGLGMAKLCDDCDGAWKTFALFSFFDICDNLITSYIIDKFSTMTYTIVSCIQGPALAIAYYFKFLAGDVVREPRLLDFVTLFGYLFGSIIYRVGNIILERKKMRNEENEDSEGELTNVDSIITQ
# T1 sequence (Q8IBZ9 59-398): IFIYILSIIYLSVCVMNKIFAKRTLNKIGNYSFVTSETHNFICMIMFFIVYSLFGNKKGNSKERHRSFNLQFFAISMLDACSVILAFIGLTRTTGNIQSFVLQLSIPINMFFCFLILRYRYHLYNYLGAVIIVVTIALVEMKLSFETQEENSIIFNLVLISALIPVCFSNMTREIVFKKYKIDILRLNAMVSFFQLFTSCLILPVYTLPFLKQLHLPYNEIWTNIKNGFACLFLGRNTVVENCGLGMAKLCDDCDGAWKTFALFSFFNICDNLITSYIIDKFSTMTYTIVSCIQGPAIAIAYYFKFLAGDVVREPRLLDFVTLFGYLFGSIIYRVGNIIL
smiles,measurement,setting,value
N[C@@H](CO)C(=O)O [L-serine],Tested as potential co-substrate but not required for influx of VF-6 via PfCRT into the oocyte,[1],X
same,"Uptake of [3H]CQ (% non-expressing oocyte control), trans-stimulation",[2]; [test solute]i = 5 mM,100 ± 3.1 % non-expressing oocyte control
same,"Uptake of [3H]CQ (% non-expressing oocyte control), trans-stimulation",[2]; [test solute]i = 45 mM (30 mM for some solutes due to solubility),101 ± 2.8 % non-expressing oocyte control
same,"Uptake of [3H]CQ (% PfCRTDd2 control), trans-stimulation, non-expressing oocytes",[2]; [test solute]i = 5 mM (intracellular),2.8 ± 0.03 % PfCRTDd2 control
same,"Uptake of [3H]CQ (% PfCRTDd2 control), trans-stimulation, non-expressing oocytes",[2]; [test solute]i = 45 mM (intracellular; 30 mM for some solutes due to solubility),2.2 ± 0.01 % PfCRTDd2 control
same,Compounds that have been tested as potential co-substrates but are not required for influx of VF-6 via PfCRT into the oocyte,[3],X
same,inhibition at 500 µM,[4]; [12],98 ± 3.1%
same,inhibition at 1000 µM,[4]; [12],100 ± 3.6%
same,inhibition at 2000 µM,[4]; [12],98 ± 3.6%
same,inhibition at 500 µM,[4]; [13],3.1 ± 0.06%
same,inhibition at 1000 µM,[4]; [13],2.2 ± 0.03%
same,inhibition at 2000 µM,[4]; [13],2.6 ± 0.08%
same,activity at 5000 µM,"[5]; pH 5.5, read-out: PfCRT-mediated [3H]CQ transport, trans-stimulation (% PfCRTDd2 control), [test solute]i = 5 mM (intracellular), PfCRTDd2 oocytes, normalised to oocyte type control",97 ± 4.4%
same,activity at 5000 µM,"[5]; pH 5.5, read-out: Uptake of [3H]CQ (% PfCRTDd2 control), trans-stimulation, PfCRTDd2, total [3H]CQ transport, [test solute]i = 5 mM (intracellular), mean ± SEM, SEM",99 ± 3.2%
same,activity at 5000 µM,"[5]; pH 5.5, read-out: Uptake of [3H]CQ (% PfCRTDd2 control), trans-stimulation, PfCRTDd2 oocytes, [test solute]i = 5 mM, total [3H]CQ transport, normalised to the oocyte type control",99 ± 3.2%
same,activity at 45000 µM,"[5]; pH 5.5, read-out: Uptake of [3H]CQ (% PfCRTDd2 control), trans-stimulation, PfCRTDd2 oocytes, total [3H]CQ transport, normalised to the oocyte type control",100 ± 2.9%
same,activity at 5000 µM,"[5]; pH 5.5, read-out: [3H]CQ transport (% PfCRTDd2 control), trans-stimulation, PfCRTDd2, trans-stimulation, [test solute]i = 5 mM (injected), PfCRT-mediated component (background subtracted), mean ± SEM, SEM",97 ± 4.4%
same,activity at 45000 µM,"[5]; pH 5.5, read-out: [3H]CQ transport (% PfCRTDd2 control), trans-stimulation, PfCRTDd2, trans-stimulation, PfCRT-mediated component (background subtracted), mean ± SEM, SEM",98 ± 3.6%
same,activity at 5000 µM,"[6]; pH 5.5, read-out: PfCRT-mediated [3H]CQ transport, trans-stimulation (% PfCRTEcu1110 control), [test solute]i = 5 mM (intracellular), PfCRTEcu1110 oocytes, normalised to oocyte type control",98 ± 3.1%
same,activity at 5000 µM,"[6]; pH 5.5, read-out: Uptake of [3H]CQ (% PfCRTEcu1110 control), trans-stimulation, PfCRTEcu1110 oocytes, [test solute]i = 5 mM, total [3H]CQ transport, normalised to the oocyte type control",100 ± 2.5%
same,activity at 45000 µM,"[6]; pH 5.5, read-out: Uptake of [3H]CQ (% PfCRTEcu1110 control), trans-stimulation, PfCRTEcu1110 oocytes, [test solute]i = 45 mM (30 mM for some solutes due to solubility), total [3H]CQ transport, normalised to the oocyte type control",98 ± 3.1%
same,activity at 5000 µM,"[6]; read-out: Uptake of [3H]CQ (% PfCRTDd2 control), trans-stimulation, PfCRTEcu1110, total [3H]CQ transport, [test solute]i = 5 mM (intracellular), mean ± SEM, SEM",36 ± 1.7%
same,activity at 45000 µM,"[6]; read-out: Uptake of [3H]CQ (% PfCRTDd2 control), trans-stimulation, PfCRTEcu1110, total [3H]CQ transport, [test solute]i = 45 mM (intracellular; 30 mM for some solutes due to solubility), mean ± SEM, SEM",35 ± 1.6%
same,activity at 5000 µM,"[7]; PfNT1 oocytes, [test solute]i = 5 mM, normalised to the oocyte type control, read-out: Uptake of [3H]CQ (% PfNT1 control), trans-stimulation",98 ± 2.6%
same,activity at 45000 µM,"[7]; SEM, read-out: Uptake of [3H]CQ (% PfCRTDd2 control), trans-stimulation, PfNT1",2.3 ± 0.06%
same,activity at 45000 µM,"[7]; read-out: Uptake of [3H]CQ (% PfNT1 control), trans-stimulation",98 ± 2.6%
same,activity at 5000 µM,"[7]; [test solute]i = 5 mM (intracellular), mean ± SEM, SEM, read-out: Uptake of [3H]CQ (% PfCRTDd2 control), trans-stimulation, PfNT1",3 ± 0.02%
same,activity at 5000 µM,"[8]; PfCRT3D7 oocytes, [test solute]i = 5 mM, total [3H]CQ transport, normalised to the oocyte type control, read-out: Uptake of [3H]CQ (% PfCRT3D7 control), trans-stimulation",100 ± 3.6%
same,"[3H]CQ transport (% PfCRT3D7 control), trans-stimulation, PfCRT3D7",[8]; SEM,0.3 ± 0.01 % PfCRT3D7 control
same,activity at 5000 µM,"[8]; [test solute]i = 5 mM (intracellular), PfCRT3D7 oocytes, normalised to oocyte type control, read-out: PfCRT-mediated [3H]CQ transport, trans-stimulation (% PfCRT3D7 control)",98 ± 4.1%
same,activity at 45000 µM,"[8]; SEM, read-out: Uptake of [3H]CQ (% PfCRTDd2 control), trans-stimulation, PfCRT3D7",3.3 ± 0.06%
same,activity at 45000 µM,"[8]; read-out: PfCRT-mediated [3H]CQ transport, trans-stimulation (% PfCRT3D7 control)",97 ± 4.5%
same,activity at 45000 µM,"[8]; read-out: Uptake of [3H]CQ (% PfCRT3D7 control), trans-stimulation",99 ± 3.7%
same,activity at 5000 µM,"[8]; total [3H]CQ transport, [test solute]i = 5 mM (intracellular), mean ± SEM, SEM, read-out: Uptake of [3H]CQ (% PfCRTDd2 control), trans-stimulation, PfCRT3D7",3.3 ± 0.06%
same,inhibition at 500 µM,[9]; [14],99 ± 4.6%
same,inhibition at 2000 µM,[9]; [14],94 ± 2.1%
same,inhibition at 500 µM,[9]; [15],101 ± 3.3%
same,inhibition at 1000 µM,[9]; [15],98 ± 2.6%
same,inhibition at 2000 µM,[9]; [15],96 ± 3.5%
same,inhibition at 500 µM,[10]; [16],97 ± 1.5%
same,inhibition at 1000 µM,[10]; [16],97 ± 3.5%
same,inhibition at 2000 µM,[10]; [16],98 ± 3.2%
same,inhibition at 500 µM,[10]; [17],32 ± 1.9%
same,inhibition at 1000 µM,[10]; [17],32 ± 2.1%
same,inhibition at 2000 µM,[10]; [17],33 ± 1.8%
same,inhibition at 500 µM,[10]; [18],101 ± 2.2%
same,inhibition at 1000 µM,[10]; [18],101 ± 1.7%
same,inhibition at 2000 µM,[10]; [18],100 ± 2.2%
same,inhibition at 500 µM,[10]; [19],29 ± 1.7%
same,inhibition at 1000 µM,[10]; [19],29 ± 1.1%
same,inhibition at 2000 µM,[10]; [19],30 ± 0.6%
same,inhibition at 500 µM,[11]; [20],2.9 ± 0.06%
same,inhibition at 1000 µM,[11]; [20],3.6 ± 0.09%
same,inhibition at 2000 µM,[11]; [20],3.2 ± 0.1%
same,inhibition at 500 µM,[11]; [21],100 ± 4.3%
same,inhibition at 1000 µM,[11]; [21],99 ± 3.7%
same,inhibition at 2000 µM,[11]; [21],99 ± 5.2%
